Source: patent US12552825B2 (Zikani Therapeutics, Inc., priority 2019, dated 2026)
≈ marks a conversion by molar mass, not a printed value.

Assays:
Format in all cases: cell-based
S. aureus MP-12 = experiment: microbe, parasite or virus in culture; conditions: Staphylococcus aureus, MP12, read-out: MIC S. aureus MP-12
E. coli MP-4 = experiment: MIC determination by CLSI broth dilution, E. coli MP-4; conditions: Escherichia coli, MP4, CLSI broth dilution; strain MP-4
K. pneumoniae MP-546 = experiment: MIC determination by CLSI broth dilution, K. pneumoniae MP-546; conditions: Klebsiella pneumoniae, MP546, CLSI broth dilution; strain MP-546
K. pneumoniae MP-648 = experiment: MIC determination by CLSI broth dilution, K. pneumoniae MP-648; conditions: Klebsiella pneumoniae, MP648, CLSI broth dilution; strain MP-648
P. aeruginosa MP-3 = experiment: MIC determination by CLSI broth dilution, P. aeruginosa MP-3; conditions: Pseudomonas aeruginosa, MP3, strain MP-3
A. baumannii MP-15 = experiment: MIC determination by CLSI broth dilution, A. baumannii MP-15; conditions: Acinetobacter baumannii, MP15, strain MP-15, read-out: MIC A. baumanii MP-15

SMILES | MIC (S. aureus MP-12) [µg/mL] | MIC (E. coli MP-4) [µg/mL] | MIC (K. pneumoniae MP-546) [µg/mL] | MIC (K. pneumoniae MP-648) [µg/mL] | MIC (P. aeruginosa MP-3) [µg/mL] | MIC (A. baumannii MP-15) [µg/mL]
CO[C@]1(C)C[C@@H](C)CN(C)[C@H](CC2CCN(C3CCCC3)CC2)COC(=O)C(C)(C)C(=O)[C@H](C)[C@H]1O[C@@H]1O[C@H](C)C[C@H](N(C)C)[C@H]1O [Compound 60] | 4 to 32 (≈ 6.01 to 48.1 µM) | < 4 | < 4 | < 4 | > 32 | > 32
CCCN1CC(C[C@@H]2COC(=O)C(C)(C)C(=O)[C@H](C)[C@@H](O[C@@H]3O[C@H](C)C[C@H](N(C)C)[C@H]3O)[C@](C)(OC)C[C@@H](C)CN2C)C1 [Compound 1] | > 32 | < 4 | 4 to 32 (≈ 6.54 to 52.3 µM) | > 32 | > 32 | > 32
COC(CN1CCC(C[C@@H]2COC(=O)C(C)(C)C(=O)[C@H](C)[C@@H](O[C@@H]3O[C@H](C)C[C@H](N(C)C)[C@H]3O)[C@](C)(OC)C[C@@H](C)CN2C)CC1)OC [Compound 65] | 4 to 32 (≈ 5.83 to 46.7 µM) | < 4 | < 4 | 4 to 32 (≈ 5.83 to 46.7 µM) | > 32 | > 32
CCN1C[C@H](C)C[C@@](C)(OC)[C@H](O[C@@H]2O[C@H](C)C[C@H](N(C)C)[C@H]2O)[C@@H](C)C(=O)C(C)(C)C(=O)OC[C@H]1[C@H](O)CCN1CCCC1 [Compound 146] | 4 to 32 (≈ 6.23 to 49.9 µM) | < 4 | < 4 | < 4 | > 32 | > 32
CO[C@]1(C)C[C@@H](C)CN(C)[C@H](CC2CCNCC2)COC(=O)C(C)(C)C(=O)[C@H](C)[C@H]1O[C@@H]1O[C@H](C)C[C@H](N(C)C)[C@H]1O [Compound 51] | > 32 | 4 to 32 (≈ 6.69 to 53.5 µM) | > 32 | > 32 | > 32 | > 32
CCN1C[C@H](C)C[C@@](C)(OC)[C@H](O[C@@H]2O[C@H](C)C[C@H](N(C)C)[C@H]2O)[C@@H](C)C(=O)C(C)(C)C(=O)OC[C@@H]1CCCN1CCCC1 [Compound 87, (3S,6R,8R,9R,10R)-9-(((2S,3R,4S,6R)-4-(dimethylamino)-3-hydroxy-6-methyltetrahydro-2H-pyran-2-yl)oxy)-4-ethyl-8-methoxy-6,8,10,12,12-pentamethyl-3-(3-(pyrrolidin-1-yl)propyl)-1-oxa-4-azacyclotridecane-11,13-dione] | < 4 | < 4 | < 4 | < 4 | > 32 | > 32
COCCCN1CCC(C[C@@H]2COC(=O)C(C)(C)C(=O)[C@H](C)[C@@H](O[C@@H]3O[C@H](C)C[C@H](N(C)C)[C@H]3O)[C@](C)(OC)C[C@@H](C)CN2C)CC1 [Compound 50] | 4 to 32 (≈ 5.97 to 47.8 µM) | < 4 | < 4 | < 4 | > 32 | > 32
CCC(CCNCC(C)C)C[C@@H]1COC(=O)C(C)(C)C(=O)[C@H](C)[C@@H](O[C@@H]2O[C@H](C)C[C@H](N(C)C)[C@H]2O)[C@](C)(OC)C[C@@H](C)CN1C (stereo partly drawn) [Compound 53] | 4 to 32 (≈ 6.1 to 48.8 µM) | < 4 | < 4 | < 4 | > 32 | > 32
CO[C@]1(C)C[C@@H](C)CN(C)[C@H](CC2CCN(Cc3ccncc3)CC2)COC(=O)C(C)(C)C(=O)[C@H](C)[C@H]1O[C@@H]1O[C@H](C)C[C@H](N(C)C)[C@H]1O [Compound 61] | 4 to 32 (≈ 5.81 to 46.4 µM) | < 4 | 4 to 32 (≈ 5.81 to 46.4 µM) | 4 to 32 (≈ 5.81 to 46.4 µM) | > 32 | > 32
CO[C@]1(C)C[C@@H](C)CN(C)[C@@H](CCCN2CC[C@H](F)C2)COC(=O)C(C)(C)C(=O)[C@H](C)[C@H]1O[C@@H]1O[C@H](C)C[C@H](N(C)C)[C@H]1O [Compound 125, (3S,6R,8R,9R,10R)-9-(((2S,3R,4S,6R)-4-(dimethylamino)-3-hydroxy-6-methyltetrahydro-2H-pyran-2-yl)oxy)-3-(3-((S)-3-fluoropyrrolidin-1-yl)propyl)-8-methoxy-4,6,8,10,12,12-hexamethyl-1-oxa-4-azacyclotridecane-11,13-dione] | 4 to 32 (≈ 6.35 to 50.8 µM) | < 4 | < 4 | 4 to 32 (≈ 6.35 to 50.8 µM) | > 32 | > 32
CO[C@]1(C)C[C@@H](C)CN(CC(C)C)[C@@H](CCCN2CCc3ccccc3C2)COC(=O)C(C)(C)C(=O)[C@H](C)[C@H]1O[C@@H]1O[C@H](C)C[C@H](N(C)C)[C@H]1O [Compound 141, (3S,6R,8R,9R,10R)-3-(3-(3,4-dihydroisoquinolin-2 (1H)-yl)propyl)-9-(((2S,3R,4S,6R)-4-(dimethylamino)-3-hydroxy-6-methyltetrahydro-2H-pyran-2-yl)oxy)-4-isobutyl-8-methoxy-6,8,10,12,12-pentamethyl-1-oxa-4-azacyclotridecane-11,13-dione] | < 4 | < 4 | < 4 | 4 to 32 (≈ 5.59 to 44.7 µM) | > 32 | > 32
CO[C@]1(C)C[C@@H](C)CN(C)[C@H](CCC2CCN(CC(C)C)CC2)COC(=O)C(C)(C)C(=O)[C@H](C)[C@H]1O[C@@H]1O[C@H](C)C[C@H](N(C)C)[C@H]1O [Compound 76] | > 32 | < 4 | 4 to 32 (≈ 5.99 to 47.9 µM) | 4 to 32 (≈ 5.99 to 47.9 µM) | > 32 | > 32
CCCN1C[C@H](C)C[C@@](C)(OC)[C@H](O[C@@H]2O[C@H](C)C[C@H](N(C)C)[C@H]2O)[C@@H](C)C(=O)C(C)(C)C(=O)OC[C@H]1CCCN1Cc2ccccc2C1 [Compound 145, (3R,6R,8R,9R,10R)-9-(((2S,3R,4S,6R)-4-(dimethylamino)-3-hydroxy-6-methyltetrahydro-2H-pyran-2-yl)oxy)-3-(3-(isoindolin-2-yl)propyl)-8-methoxy-6,8,10,12,12-pentamethyl-4-propyl-1-oxa-4-azacyclotridecane-11,13-dione] | < 4 | < 4 | < 4 | < 4 | < 4 | > 32
CO[C@]1(C)C[C@@H](C)CN(C)[C@H](CC2CCN(CC3CC3)CC2)COC(=O)C(C)(C)C(=O)[C@H](C)[C@H]1O[C@@H]1O[C@H](C)C[C@H](N(C)C)[C@H]1O [Compound 57] | 4 to 32 (≈ 6.14 to 49.1 µM) | < 4 | < 4 | < 4 | > 32 | > 32
CCCCCCCN1CCC(C[C@@H]2COC(=O)[C@@](C)(Cl)C(=O)[C@H](C)[C@@H](O[C@@H]3O[C@H](C)C[C@H](N(C)C)[C@H]3O)[C@](C)(OC)C[C@@H](C)CN2C)CC1 [Compound 173] | > 32 | < 4 | < 4 | 4 to 32 (≈ 5.58 to 44.7 µM) | > 32 | > 32
CO[C@]1(C)C[C@@H](C)CN(C)[C@H](C=C2CCN(CC3CC3)CC2)COC(=O)C(C)(C)C(=O)[C@H](C)[C@H]1O[C@@H]1O[C@H](C)C[C@H](N(C)C)[C@H]1O [Compound 150] | 4 to 32 (≈ 6.15 to 49.2 µM) | < 4 | < 4 | 4 to 32 (≈ 6.15 to 49.2 µM) | > 32 | > 32
CCN(C)CC[C@@H](O)[C@@H]1COC(=O)C(C)(C)C(=O)[C@H](C)[C@@H](O[C@@H]2O[C@H](C)C[C@H](N(C)C)[C@H]2O)[C@](C)(OC)C[C@@H](C)CN1CC [Compound 168] | 4 to 32 (≈ 6.35 to 50.8 µM) | < 4 | 4 to 32 (≈ 6.35 to 50.8 µM) | < 4 | > 32 | > 32
CCCN1CCC(C[C@@H]2COC(=O)C(C)(C)C(=O)[C@H](C)[C@@H](O[C@@H]3O[C@H](C)C[C@H](N(C)C)[C@H]3O)[C@](C)(OC)C[C@@H](C)CN2CC)CC1 [Compound 102, (3R,6R,8R,9R,10R)-9-(((2S,3R,4S,6R)-4-(dimethylamino)-3-hydroxy-6-methyltetrahydro-2H-pyran-2-yl)oxy)-4-ethyl-8-methoxy-6,8,10,12,12-pentamethyl-3-((1-propylpiperidin-4-yl)methyl)-1-oxa-4-azacyclotridecane-11,13-dione] | 4 to 32 (≈ 6.12 to 48.9 µM) | < 4 | < 4 | < 4 | > 32 | 4 to 32 (≈ 6.12 to 48.9 µM)
